Measured values: patent US5270302A, “Derivatives of tetrapeptides as CCK agonists” (priority 1991, dated 1993)
Where two headings read alike, the source gives them in different places. *1 amine or outer side, *2 acyl side, *3 side chain or, on linkers, in order; H or OH if unused. Where a SMILES comes first, the peptide text is derived from it. Side-chain parts run from the residue outwards. [ ]: non-standard residue; d: D form. The star is where a group is joined. 1Nal = N[C@@H](Cc1cccc2ccccc12)C(=O)O; Desaminotyrosyl = O=C(CCc1ccc(O)cc1)*; NMeF = CN[C@@H](Cc1ccccc1)C(=O)O; X4 = O=C(OC1C2CC3CC(C2)CC1C3)*; NH(2-Me-phenyl) = Cc1ccccc1N*; βNA = c1ccc2cc(N*)ccc2c1; X15 = Clc1cccc(N*)c1Cl; Boc = CC(C)(C)OC(=O)*; CO = O=C([*:1])[*:2]; Bz = O=C(c1ccccc1)*; X2 = C1CN(CCO*)CCO1

Assays:
[1] = target: T1, Type-B CCK receptor (Cavia porcellus, UniProt H0VZC5); assay: Radioligand binding of [125I]BH-CCK-8 in guinea pig cerebral cortical membrane preparations
T1 construct: Cortical and pancreatic membranes were prepared as described; from tissue; host or cells: guinea pig cerebral cortex membranes
T1 sequence (H0VZC5 1-426): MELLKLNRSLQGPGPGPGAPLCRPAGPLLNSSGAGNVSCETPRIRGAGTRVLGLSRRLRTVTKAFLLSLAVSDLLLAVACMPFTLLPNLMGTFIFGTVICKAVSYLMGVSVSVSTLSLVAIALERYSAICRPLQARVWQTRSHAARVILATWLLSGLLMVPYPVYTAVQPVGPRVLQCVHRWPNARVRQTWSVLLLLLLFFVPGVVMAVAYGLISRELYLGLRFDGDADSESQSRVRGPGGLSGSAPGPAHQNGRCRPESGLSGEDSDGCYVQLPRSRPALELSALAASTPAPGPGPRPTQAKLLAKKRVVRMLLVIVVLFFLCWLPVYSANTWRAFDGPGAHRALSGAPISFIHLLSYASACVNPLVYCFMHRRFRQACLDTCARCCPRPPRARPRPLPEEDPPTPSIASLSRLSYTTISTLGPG
Outline: (§1)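 Membranes came from male guinea pig pancreas (type A) or cerebral cortex (type B) and were resuspended in pH 7.4 HEPES-EGTA-salt buffer containing bestatin and phosphoramidon. Test compounds competed with [125I]BH-CCK-8 in 0.1% BSA: cortex 150 min at 30 °C, pancreas 150 min at 37 °C. Reactions ended by filtration; IC50 from Hill analysis.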

[2] = target: T2, Type-A CCK receptor (Cavia porcellus, UniProt Q63931); assay: Radioligand binding of [125I]BH-CCK-8 in guinea pig pancreatic membrane preparations
T2 construct: Cortical and pancreatic membranes were prepared as described; from tissue; host or cells: guinea pig pancreas membranes
T2 sequence (Q63931 1-430): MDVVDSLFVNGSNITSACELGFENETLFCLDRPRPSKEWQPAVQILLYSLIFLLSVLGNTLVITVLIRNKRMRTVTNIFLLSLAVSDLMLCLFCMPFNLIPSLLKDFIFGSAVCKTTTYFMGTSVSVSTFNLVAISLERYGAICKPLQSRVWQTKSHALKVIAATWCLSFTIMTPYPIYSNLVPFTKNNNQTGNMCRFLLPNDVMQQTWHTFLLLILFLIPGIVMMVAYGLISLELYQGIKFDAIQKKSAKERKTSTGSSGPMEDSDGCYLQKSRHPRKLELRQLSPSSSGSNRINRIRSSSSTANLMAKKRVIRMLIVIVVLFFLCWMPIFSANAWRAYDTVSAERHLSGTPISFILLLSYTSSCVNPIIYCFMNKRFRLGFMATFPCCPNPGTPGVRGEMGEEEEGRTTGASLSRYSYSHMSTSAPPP
Outline: as §1

[3] = guinea pig cortical membranes, 30° C., 150 minutes, read-out: IC50 (nM) 125I-BH-CCK-8 Type-B receptor
[4] = guinea pig pancreatic membranes, 37° C., 150 min, read-out: IC50 (nM) 125I-BH-CCK-8 Type-A receptor
[5] = IC50 (nM) 125I-BH-CCK-8 Type-B receptor, guinea pig cortical membranes, 30° C., 150 minutes
[6] = IC50 (nM) 125I-BH-CCK-8 Type-A receptor, guinea pig pancreatic membranes, 37° C., 150 min

IC50 [1, 3]	IC50 [2, 4]	Compound	IC50 [1]	also measured
1200 nM	33 nM	CC(C)(C)OC(=O)N[C@@H](Cc1c[nH]c2ccccc12)C(=O)N[C@@H](CCCCNC(=O)CCc1ccc(O)cc1)C(=O)N[C@@H](CC(=O)O)C(=O)N[C@@H](Cc1cccc2ccccc12)C(N)=O [Example 21, t-BOC-Trp-Lys(ε-N-(3-(4-hydroxyphenyl)propionyl))-Asp-α-NalNH2] (Boc-WK(Desaminotyrosyl)D[1Nal]-NH2)	–	–
1300 nM	20 nM	Cc1ccccc1NC(=O)NCCCC[C@H](NC(=O)C(C#N)Cc1c[nH]c2ccccc12)C(=O)N[C@@H](CC(=O)O)C(=O)N(C)[C@@H](Cc1ccccc1)C(N)=O (stereo partly drawn) [Example 105, (2-Cyano-3-(3-indolyl)propionyl)-Lys(ε-N-(2-methylphenyl)aminocarbonyl)-Asp-(NMe)PheNH2]	–	–
–	–	Cc1ccccc1NC(=O)NCCCC[C@H](NC(=O)[C@H](Cc1c[nH]c2ccccc12)NC(=O)OC1C2CC3CC(C2)CC1C3)C(=O)N[C@@H](CC(=O)O)C(=O)N(C)[C@@H](Cc1ccccc1)C(N)=O (stereo partly drawn) [Example 74, 2-Adamantyloxycarbonyl-Trp-Lys(ε-N-(2-methylphenyl)aminocarbonyl)Asp-(NMe)PheNH2] (X4-WK([CO-NH(2-Me-phenyl)])D[NMeF]-NH2)	8000 nM	IC50 [2]: 22 nM
–	–	Cc1ccccc1NC(=O)NCCCC[C@H](NC(=O)[C@H](Cc1c[nH]c2ccccc12)NC(=O)OC(C)(C)C)C(=O)N[C@@H](CC(=O)OCCN1CCOCC1)C(=O)N(C)[C@@H](Cc1ccccc1)C(N)=O [Example 120, t-BOC-Trp-Lys(ε-N-(2-methylphenyl)aminocarbonyl)-Asp(β-2-(1-morpholino)ethyl)-(NMe)PheNH2] (Boc-WK([CO-NH(2-Me-phenyl)])D(X2)[NMeF]-NH2)	13000 nM	IC50 [2]: 26 nM
–	–	CNC(=O)N[C@@H](Cc1c[nH]c2ccccc12)C(=O)N[C@@H](CCCCNC(=O)Nc1ccccc1C)C(=O)N[C@@H](CC(=O)O)C(=O)N(C)[C@@H](Cc1ccccc1)C(N)=O [Example 83, Methylaminocarbonyl-Trp-Lys(ε-N-(2-methylphenyl)aminocarbonyl)-Asp-(NMe)PheNH2] ({NHMe-CO}-WK([CO-NH(2-Me-phenyl)])D[NMeF]-NH2)	–	IC50 [1, 5]: 4900 nM; IC50 [2, 6]: 9.7 nM
–	–	Cc1ccccc1NC(=O)NCCCC[C@H](NC(=O)[C@H](Cc1c[nH]c2ccccc12)NC(=O)c1ccccc1)C(=O)N[C@@H](CC(=O)O)C(=O)N(C)[C@@H](Cc1ccccc1)C(N)=O [Example 89, Benzoyl-Trp-Lys(ε-N-(2-methylphenyl)aminocarbonyl)-Asp-(NMe)PheNH2] (Bz-WK([CO-NH(2-Me-phenyl)])D[NMeF]-NH2)	–	IC50 [1, 5]: 4600 nM; IC50 [2, 6]: 1.8 nM
4500 nM	20 nM	Cc1ccccc1NC(=O)NCCCC[C@H](NC(=O)C(F)Cc1c[nH]c2ccccc12)C(=O)N[C@@H](CC(=O)O)C(=O)N[C@@H](Cc1ccccc1)C(N)=O (stereo partly drawn) [Example 63, 2-Fluoro-3-(indol-3-yl)propionyl-Lys(ε-N-(2-methylphenyl)aminocarbonyl)-Asp-PheNH2]	–	–

Compound	IC50 [1, 3]	IC50 [2, 4]	IC50 [1]	also measured
CC(C)(C)OC(=O)N[C@@H](Cc1c[nH]c2ccccc12)C(=O)N[C@@H](CCCCNC(=O)Nc1cccc(Cl)c1Cl)C(=O)N[C@@H](CC(=O)O)C(=O)N[C@@H](Cc1ccccc1)C(N)=O [Example 125, t-BOC-Trp-Lys(ε-N-(2,3-dichlorophenyl)aminocarbonyl)-Asp-PheNH2] (Boc-WK([CO-X15])DF-NH2)	> 10000 nM	2.8 nM	–	–
CC(C)(C)OC(=O)N[C@@H](Cc1c[nH]c2ccccc12)C(=O)N[C@@H](CCCCNC(=O)Nc1ccc2ccccc2c1)C(=O)N[C@@H](CC(=O)O)C(=O)N[C@@H](Cc1ccccc1)C(N)=O [Example 44, t-BOC-Trp-Lys(ε-N-(β-naphthyl)aminocarbonyl)-Asp-PheNH2] (Boc-WK([CO-βNA])DF-NH2)	–	16 nM	3200 nM	–
